From PubChem BioAssay (NCI)
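Protocol summary: plate cells (96-well), add compound at 5 concentrations, incubate 48 h, interpolate endpoints linearly. GI50 = concentration required for 50% inhibition of growth. TGI is the concentration that stops growth completely.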

Tests used:
Assay in all cases: NCI tumour cell line growth inhibition, 48 h
[1] = test system: CAKI-1 renal
[2] = test system: OVCAR-3 ovarian
[3] = test system: NCI-H226 lung
[4] = test system: PC-3 prostate
[5] = test system: RXF 393 renal
[6] = test system: K-562 leukemia
[7] = test system: SF-295 CNS
[8] = test system: MDA-MB-435
[9] = test system: SW-620 colon
[10] = test system: OVCAR-4 ovarian
[11] = test system: HCT-116 colon
[12] = test system: MCF7 breast
[13] = test system: SNB-75 CNS
[14] = test system: HOP-92 NSCLC
[15] = test system: UACC-257 melanoma
[16] = test system: LOX IMVI melanoma
[17] = test system: HS 578T breast
[18] = test system: UO-31 renal
[19] = test system: OVCAR-5 ovarian
[20] = test system: DU-145 prostate
[21] = test system: CCRF-CEM leukemia
[22] = test system: TK-10 renal
[23] = test system: SK-OV-3 ovarian
[24] = test system: SK-MEL-2 melanoma
[25] = test system: MDA-MB-231 breast
[26] = test system: M14 melanoma
[27] = test system: U251 CNS
[28] = test system: SNB-19 CNS
[29] = test system: EKVX NSCLC
[30] = test system: T-47D breast
[31] = test system: A498 renal
[32] = test system: HCC-2998 colon
[33] = test system: NCI/ADR-RES ovarian
[34] = test system: NCI-H23 lung
[35] = test system: COLO 205 colon
[36] = test system: BT-549 breast
[37] = test system: HOP-62 NSCLC
[38] = test system: SK-MEL-5 melanoma
[39] = test system: HCT-15 colon
[40] = test system: RPMI-8226 leukemia
[41] = test system: A549 NSCLC
[42] = test system: SF-539 CNS
[43] = test system: KM12 colon
[44] = test system: UACC-62 melanoma
[45] = test system: NCI-H522 lung
[46] = test system: ACHN renal
[47] = test system: NCI-H460 lung
[48] = test system: SK-MEL-28 melanoma
[49] = test system: 786-0 renal
[50] = test system: SF-268 CNS
[51] = test system: OVCAR-8 ovarian
[52] = test system: MALME-3M melanoma

With `COc1cnc2c(c1)C(=O)c1c-2n(CCCn2ccnc2)c(=O)c2cc(Cl)ccc12` the GI50 [1] was 25.5 nM, the TGI [1] was > 100000 nM and the GI50 [2] was 129 nM. It also gave a TGI [2] of 38800 nM, a GI50 [3] of 46.4 nM and a TGI [3] of 892 nM. For the same molecule, the GI50 [4] was 66.7 nM, the TGI [4] was > 100000 nM and the GI50 [5] was 40.7 nM. The TGI [5] was 235 nM, the GI50 [6] was 34.7 nM and the TGI [6] was > 100000 nM. For the same molecule, the GI50 [7] was 25.1 nM, the TGI [7] was 79.4 nM and the GI50 [8] was 145 nM. For the same molecule, the TGI [8] was 1290 nM, the GI50 [9] was 26.2 nM and the TGI [9] was > 100000 nM. The GI50 [10] was 362 nM, the TGI [10] was > 100000 nM and the GI50 [11] was 14.7 nM. The TGI [11] was 216 nM, the GI50 [12] was < 10 nM and the GI50 [13] was 219 nM. The TGI [13] was 18900 nM, the GI50 [14] was 72.6 nM and the TGI [14] was 56200 nM. For the same molecule, the GI50 [15] was 90.4 nM, the TGI [15] was 1910 nM and the GI50 [16] was 19.8 nM. The TGI [16] was 116 nM, the GI50 [17] was 11400 nM and the TGI [17] was > 100000 nM. For the same molecule, the GI50 [18] was 26.4 nM, the TGI [18] was 2340 nM and the GI50 [19] was 309 nM. The TGI [19] was 35000 nM, the GI50 [20] was 43.2 nM and the TGI [20] was > 100000 nM. For the same molecule, the GI50 [21] was < 10 nM, the TGI [21] was > 100000 nM and the GI50 [22] was 744 nM. The TGI [22] was > 100000 nM, the GI50 [23] was 40.3 nM and the TGI [23] was 303 nM. The GI50 [24] was 574 nM, the TGI [24] was 14300 nM and the GI50 [25] was 1270 nM. The TGI [25] was > 100000 nM, the GI50 [26] was 28.2 nM and the TGI [26] was 162 nM. The GI50 [27] was 14.4 nM, the TGI [27] was 119 nM and the GI50 [28] was 32.1 nM. For the same molecule, the TGI [28] was > 100000 nM, the GI50 [29] was 251 nM and the TGI [29] was > 100000 nM. It also gave a GI50 [30] of 26.3 nM, a TGI [30] of 309 nM and a GI50 [31] of 113 nM. The TGI [31] was 557 nM, the GI50 [32] was 382 nM and the TGI [32] was > 100000 nM. The GI50 [33] was 30 nM, the TGI [33] was 12500 nM and the GI50 [34] was 38.2 nM. For the same molecule, the TGI [34] was 505 nM, the GI50 [35] was 33.2 nM and the TGI [35] was 2090 nM. For the same molecule, the GI50 [36] was 146 nM, the TGI [36] was > 100000 nM and the GI50 [37] was 21.1 nM. It also gave a TGI [37] of 87.9 nM, a GI50 [38] of 38.7 nM and a TGI [38] of 164 nM. The GI50 [39] was 159 nM, the TGI [39] was > 100000 nM and the GI50 [40] was 50.4 nM. The TGI [40] was 987 nM, the GI50 [41] was 66.3 nM and the TGI [41] was > 100000 nM. It also gave a GI50 [42] of 38.8 nM, a TGI [42] of 321 nM and a GI50 [43] of 238 nM. The TGI [43] was > 100000 nM, the GI50 [44] was 28.3 nM and the TGI [44] was 204 nM. The GI50 [45] was 27.6 nM, the TGI [45] was 10100 nM and the GI50 [46] was 30.1 nM. For the same molecule, the TGI [46] was 61400 nM, the GI50 [47] was < 10 nM and the TGI [47] was 271 nM. For the same molecule, the GI50 [48] was 611 nM, the TGI [48] was > 100000 nM and the GI50 [49] was 26.2 nM. For the same molecule, the TGI [49] was 82.3 nM, the GI50 [50] was 34.3 nM and the TGI [50] was > 100000 nM. It also gave a GI50 [51] of 38.9 nM, a TGI [51] of 14300 nM and a GI50 [52] of 293 nM. For the same molecule, the TGI [52] was 37400 nM.
